Measured values reported in the RepoRT retention time repository (doi:10.1007/s11306-011-0298-z).

Experiment: RP, Waters ACQUITY UPLC HSS T3, 100 × 2.1 mm, 1.8 µm, 30 °C, 0.3 mL/min, estimated dead time 0.73 min; A: water + 0.1% formic acid, pH 3; B: methanol + 0.1% formic acid, pH 3; gradient (min/%B) 0/0 6/0 56/100 60/100
Settings: stereoisomer not certain

Structure (SMILES)	LC retention time [min]
O=C(O)CCCCC(=O)O [adipic acid]	15.5
OCC(O)C(O)C(O)CO (stereo not given) [adonitol]	1.38
O=CC(O)C(O)C(O)C(O)CO (stereo not given) [altrose]	1.43
Oc1ccc(C2Oc3cc(O)c4c(c3C2c2cc(O)cc(O)c2)C2C(c3ccc(O)cc3)c3c(O)cc5c(c3C2C4c2ccc(O)cc2)C(c2cc(O)cc(O)c2)C(c2ccc(O)cc2)O5)cc1 (stereo not given) [ampelopsin H]	29.8
N#CC(OC1OC(COC2OC(CO)C(O)C(O)C2O)C(O)C(O)C1O)c1ccccc1 (stereo not given) [amygdalin]	19.3
COc1ccc(C=O)cc1 [anisaldehyde]	27.1
Nc1ccccc1C(=O)O [anthranilic acid]	19.1
O=c1cc(-c2ccc(O)cc2)oc2cc(O)cc(O)c12 [apigenin]	37.1
O=CC(O)C(O)C(O)CO (stereo not given) [arabinose]	1.41
CCCCCC=CCC=CCC=CCC=CCCCC(=O)O [arachidonic acid]	53.5
O=c1cc(-c2ccccc2)oc2cc(O)c(O)c(O)c12 [baicalein]	36.6
CCCCCCCCCCCCCCCCCCCCCC(=O)O [behenic acid]	58.7
O=C(O)c1ccccc1 [benzoic acid]	26.2
O=C(OCc1ccccc1)c1ccccc1 [benzyl benzoate]	43.5
O=C(O)c1ccc(O)cc1O [beta-resorcylic acid]	19.6
C[N+](C)(C)CC(=O)[O-] [betaine]	1.38
NCCCCCN [cadaverine]	1.1
C=CC1CN2CCC1CC2C(O)c1ccnc2ccccc12 (stereo not given) [chinchonidine sulphate]	19.1

Structure (SMILES)	LC retention time [min]
C[N+](C)(C)CCO [choline]	1.4
O=c1cc(-c2ccccc2)oc2cc(O)cc(O)c12 [chrysin]	40.9
CCCCCCCC/C=C\CCCCCCCCCC(=O)O [cis-11-eicosenoic acid]	56.2
O=C(O)C=C(CC(=O)O)C(=O)O [cis-acotinic acid]	4.4
CC(O)(CC(=O)O)C(=O)O (stereo not given) [citramalic acid]	5.18
O=C(O)CC(O)(CC(=O)O)C(=O)O [citric acid]	3.91
Oc1cc(O)c2cc(O)c(-c3ccc(O)c(O)c3)[o+]c2c1 [cyanidin]	28.9
O=c1c(-c2ccc(O)cc2)coc2cc(O)ccc12 [daidzein]	32.5
CCCCCCCCCC(=O)O [decanoic acid]	45.6
O=C1OC(C(O)CO)C(=O)C1=O (stereo not given) [dehydroascorbic acid]	1.72
O=c1cc2oc(-c3cc(O)c(O)c(O)c3)c(O)cc-2c(O)c1 [delphinidin]	27.1
CCNCC [diethylamine]	1.68
O=c1oc2c(O)c(O)cc3c(=O)oc4c(O)c(O)cc1c4c23 [ellagic acid]	30.2
Cc1cc(O)c2c(c1)C(=O)c1cc(O)cc(O)c1C2=O [emodin]	46.4
O=c1ccc2cc(OC3OC(CO)C(O)C(O)C3O)c(O)cc2o1 (stereo not given) [esculin]	17.8
CCOC(=O)c1cc(O)c(O)c(O)c1 [ethyl gallate]	23
CCCCCCCCCCCCCC(=O)OCC [ethyl tetradecanoate]	55.1

More lines, now with the values ahead:

LC retention time [min]	Structure (SMILES)
1.35	OCC1OC(O)C(O)C(O)C1O (stereo not given) [allose]
59.2	Cc1c(C)c2c(c(C)c1O)CCC(C)(CCCC(C)CCCC(C)CCCC(C)C)O2 (stereo not drawn) [alpha-tocopherol]
26.2	Oc1ccc(C=C2c3cc(O)cc(O)c3C(c3ccc(O)cc3)C2c2cc(O)cc(O)c2)cc1 (stereo not given) [ampelopsin D + quadrangularin A]
28.9	O=c1cc(-c2ccc(O)cc2)oc2cc(OC3OC(CO)C(O)C(O)C3O)cc(O)c12 (stereo not given) [apigenin-7-O-glucoside]
29.6	O=c1cc(-c2ccc(O)cc2)oc2cc(OC3OC(CO)C(O)C(O)C3OC3OCC(O)(CO)C3O)cc(O)c12 (stereo not given) [apiin]
7.61	OCC1OC(Oc2ccc(O)cc2)C(O)C(O)C1O (stereo not given) [arbutin]
22.7	OCC1OC(Oc2cc(O)cc(C=Cc3ccc(O)c(O)c3)c2)C(O)C(O)C1O (stereo not given) [astringin]
46.3	CC1=C(C=CC(C)O)C(C)(C)CCC1 (stereo not given) [b-ionol]
53.2	C=C(C)C1CCC2(C(=O)O)CCC3(C)C(CCC4C5(C)CCC(O)C(C)(C)C5CCC43C)C12 (stereo not given) [betulinic acid]
56.4	C=CC1=C(C)C(=Cc2[nH]c(Cc3[nH]c(C=C4NC(=O)C(C)=C4C=C)c(C)c3CCC(=O)O)c(CCC(=O)O)c2C)NC1=O [bilirubin]
21.6	O=C(O)CCCCC1SCC2NC(=O)NC21 (stereo not given) [biotin]
26.1	O=C1CC(c2ccc(O)c(O)c2)c2c(cc(O)c3c2OC(c2ccc(O)c(O)c2)C(O)C3)O1 (stereo not given) [caffeic acid+catechin condensation product]
20.4	Cn1c(=O)c2c(ncn2C)n(C)c1=O [caffeine]
15.5	O=C(C=Cc1ccc(O)c(O)c1)OC(C(=O)O)C(O)C(=O)O (stereo not given) [caftaric acid]
36.5	CC12CCC(CC1=O)C2(C)C (stereo not given) [camphor]
1.55	OCC1OC(OC2C(CO)OC(O)C(O)C2O)C(O)C(O)C1O (stereo not given) [cellobiose]
49.4	CC(CCC(=O)O)C1CCC2C3C(O)CC4CC(O)CCC4(C)C3CCC12C (stereo not given) [chenodeoxycholic acid]
18	O=C(C=Cc1ccc(O)c(O)c1)OC1CC(O)(C(=O)O)CC(O)C1O (stereo not given) [chlorogenic acid]
60.2	CC(C)CCCC(C)C1CCC2C3CC=C4CC(O)CCC4(C)C3CCC12C (stereo not given) [cholesterol]
46.8	CC(CCC(=O)O)C1CCC2C3C(O)CC4CC(O)CCC4(C)C3CC(O)C12C (stereo not given) [cholic acid]
31.8	O=C(O)C=Cc1ccccc1 [cinnamic acid]
27.2	OCC1OC(Oc2cc(O)cc(C=Cc3ccc(O)cc3)c2)C(O)C(O)C1O (stereo not drawn) [cis-piceid]
30.4	Oc1ccc(/C=C\c2cc(O)cc(O)c2)cc1 [cis-resveratrol]
22.8	COc1cc(C=CCO)ccc1O [coniferyl alcohol]
25.9	COc1cc(C=CC=O)ccc1O [coniferyl aldehyde]

LC retention time [min]	Structure (SMILES)
20.1	O=C(C=Cc1ccc(O)c(O)c1)OC1C(O)CC(O)(C(=O)O)CC1O (stereo not given) [cryptochlorogenic acid]
38.6	CC(C)c1ccc(C=O)cc1 [cuminaldehyde]
22.1	OCC1OC(Oc2cc3c(O)cc(O)cc3[o+]c2-c2ccc(O)c(O)c2)C(O)C(O)C1O (stereo not given) [cyanidin 3 galactoside]
18.4	OCC1OC(Oc2cc3c(OC4OC(CO)C(O)C(O)C4O)cc(O)cc3[o+]c2-c2ccc(O)c(O)c2)C(O)C(O)C1O (stereo not given) [cyanidin-3,5-diglucoside]
23.1	Oc1cc(O)c2cc(OC3OCC(O)C(O)C3O)c(-c3ccc(O)c(O)c3)[o+]c2c1 (stereo not given) [cyanidin-3-arabinoside]
23.1	CC1OC(OCC2OC(Oc3cc4c(O)cc(O)cc4[o+]c3-c3ccc(O)c(O)c3)C(O)C(O)C2O)C(O)C(O)C1O (stereo not given) [cyanidin-3-rutinoside]
21.9	CC1OC(OCC2OC(Oc3cc4c(O)cc(O)cc4[o+]c3-c3cc(O)c(O)c(O)c3)C(O)C(O)C2O)C(O)C(O)C1O (stereo not given) [delphinidin 3 rutinoside]
20.9	OCC1OC(Oc2cc3c(O)cc(O)cc3[o+]c2-c2cc(O)c(O)c(O)c2)C(O)C(O)C1O (stereo not given) [delphinidin-3-glucoside]
49.6	CC(CCC(=O)O)C1CCC2C3CCC4CC(O)CCC4(C)C3CC(O)C12C (stereo not given) [deoxycholic acid]
46.1	CC(=O)C=CC1C(C)CCCC1(C)C (stereo not drawn) [dihidro alpha ionone]
27.8	O=C1c2c(O)cc(O)cc2OC(c2ccc(O)cc2)C1O (stereo not given) [dihydrokaempferol]
24.4	Oc1ccc(C2Oc3cc(O)cc(O)c3CC2O)cc1 (stereo not given) [epiafzelechin]
20.5	Oc1cc(O)c2c(c1)OC(c1ccc(O)c(O)c1)C(O)C2 (stereo not given) [epicatechin]
22.3	O=C(OC1Cc2c(O)cc(O)cc2OC1c1cc(O)c(O)c(O)c1)c1cc(O)c(O)c(O)c1 (stereo not given) [epigallo-catechin gallate]
16.5	Oc1cc(O)c2c(c1)OC(c1cc(O)c(O)c(O)c1)C(O)C2 (stereo not given) [epigallocatechin]
58.9	CC(C)C(C)C=CC(C)C1CCC2C3=CC=C4CC(O)CCC4(C)C3CCC21C (stereo not given) [ergosterol]
31	O=C1CC(c2ccc(O)c(O)c2)Oc2cc(O)cc(O)c21 (stereo not given) [eriodictyol]
53.8	CC1(C)CCC2(CO)CCC3(C)C(=CCC4C5(C)CCC(O)C(C)(C)C5CCC43C)C2C1 (stereo not given) [erythrodiol]
35.5	CCOC(=O)Cc1c[nH]c2ccccc12 [ethyl indole-3-acetate]
56.1	CCCCCC=CCC=CCCCCCCCC(=O)OCC [ethyl linoleate]
38.3	C=CCc1ccc(OC(C)=O)c(OC)c1 [eugenyl acetate]
37.4	COc1ccc(-c2cc(=O)c3c(OC)c(OC)c(OC)cc3o2)cc1O [eupatorin-5-methylether]
19.5	COc1cc(C=CC(=O)OC(C(=O)O)C(O)C(=O)O)ccc1O (stereo not given) [fertaric acid]
25.9	COc1cc(/C=C/C(=O)O)ccc1O [ferulic acid]
21.3	Nc1nc2ncc(CNc3ccc(C(=O)NC(CCC(=O)O)C(=O)O)cc3)nc2c(=O)[nH]1 (stereo not given) [folic acid]
